Results as given in patent US11229628B2, “TRPA1 and TRPV4 inhibitors and methods of using the same for organ-specific inflammation and itch” (Duke University, priority 2015, dated 2022).

Tests used:
human TRPV1 = molecular target: T1, human TRPV1 (Homo sapiens, UniProt Q8NER1); assay: Ca2+ signal in N2a cells transfected with human TRPV1 (capsaicin stimulation); assay type: cell-based; conditions: 5 μM capsaicin stimulation
T1 construct: expressed in transfected cells; host or cells: N2a cells
Procedure: (§1) Compounds were tested for their effect on TRPV1, TRPV2, and TRPV3. Methods were similar to those described in Example 15. Briefly, N2a cells were transfected with human TRPV1, TRPV2, or TRPV3. eGFP-transfection was used as control. For specific stimulation of TRPV1, 5 μM capsaicin was used. For stimulation of TRPV2, hypotonicity (260 mosmol/L) was used, based on previous reports of TRPV2 being osmotically responsive. N2a cells were not responsive to hypotonicity, and neither were control-transfected cells. For TRPV3-expressing cells, camphor (20% of a commercially available stock solution) was used. […] Stimulation and control protocols were applied as for TRPA1-expressing N2a cells as detailed above in Example 15.
(§2) For TRPV1, TRPV2, and TRPV3, Ca2+ transience was not affected by administration of 16-8 or 16-8/18hy.

human TRPA1 = molecular target: T2, human TRPA1 (Homo sapiens, UniProt O75762); assay: Ca2+ transient in N2a cells transfected with human TRPA1, evoked by AITC; assay type: cell-based; conditions: for inhibitory activity against human TRPA1: 5 μM compound
T2 construct: expressed in transfected cells; host or cells: N2a cells
Procedure: Compounds were tested for their effect on TRPA1. N2a permanent cells were transfected with human TRPA1 cDNA, using a pcDNA3.1 expression plasmid. They were co-transfected with eGFP-expressing plasmid, or, for control, with eGFP plasmid only.
Cells were then pre-exposed to 5 μM of compounds 16-8 and 16-8/18hy for 10 min.
Averaged Ca2+ signal is shown from >75 cells. The resulting Ca2+ transient evoked by 60 μM AITC was reduced by >80% upon administration of compound 16-8 or 16-8/18hy at 5 μM, indicating appreciable TRPA1-inhibitory effects of both compounds.

TRPV4 = TRPV4 (Homo sapiens, UniProt Q9HBA0); assay: TRPV4-mediated calcium influx in N2a cells with targeted expression of human TRPV4 (Ca2+ imaging, activation with 10 nM GSK101); assay type: cell-based; parameters: expressed in transfected cells; host or cells: N2a cells; conditions: 2.5 μM inhibitor, pre-incubation 10 min
Procedure: Compounds (GSK205, 16-12, 16-13, 16-14, 16-18, 16-8, and 16-8/18hy) were tested for their effect on TRPV4-mediated calcium influx in N2a cultured cells with targeted expression of human TRPV4. Ca2+ imaging was performed according to Li et al. (Environ. Health Perspect. 2011, 119, 784-93) and Moore et al. (Proc. Natl. Acad. Sci. U.S.A. 2013, 110, E3225-E3234). Briefly, Ca2+ imaging of primary mouse epidermal keratinocytes (1° MK) in response to chemical activation of TRPV4 was conducted after loading with 2 μM fura2-AM, following a ratiometric Ca2+-imaging protocol with 340/380 nm blue light for dual excitation. Ratios of emissions were acquired at 0.5 Hz. ΔR/R0 was determined as the fraction of the increase of a given ratio over baseline ratio, divided by baseline ratio. For stimulation of cells with UVB, where fura-2 was not suitable because of the proximity of stimulation with 340/380 nm vs. 295 nm, 2 μM fluo4-AM was used instead. Ca2+ imaging was carried out at 488 nm excitation, acquisition of emissions at 0.5 Hz, expressed as ΔF/F0. TRPV4 was activated with 10 nM GSK101, a specific activator, which had no effect on RFP-transfected cells. Each of the […] compounds were added to a concentration of 2.5 μM, and its effect was observed.
The ordinate is the peak calcium concentration in the cells (average n>75 cells) in nM.

BL6 mice = assay: Formalin-evoked nocifensive behavior, whiskerpad injection pain model in mice; assay type: in vivo, mouse; conditions: for formalin-evoked nocifensive behavior at the 45-min time-point / formalin-evoked nocifensive behavior, time course: 0.5 mM/10 μL whiskerpad; for formalin-evoked nocifensive behavior, quantitation (in particular second phase): pre-injected into whiskerpad at 0.5 mM/10 μL, 15 min before formalin
Procedure: Compounds were tested for their effect in reducing pain using an in vivo pain model in mice. For mouse formalin-evoked irritant behavior measurements, mice were well-fed, well-rested, and tested at the same time of day, at the same time-point of their circadian rhythm. They were allowed to acclimate to a plexiglas chamber for at least 30 min before testing, and received 10 μL subcutaneous injection of 4% of formalin (diluted from an aqueous solution of commercial 37% formaldehyde with normal saline (NS)) through a 30-gauge needle into the right whiskerpad, as further detailed in Luccarini et al. (J. Pain, 2006, 7, 908-914). Normal saline was used as control injection. After injection, mice were immediately placed back into the chamber and the rubbing behavior was recorded by a private consumer-type video-camera for a 45 min observation period. The recording time was divided into 9 blocks of 5 min, and a nociceptive score was determined per block by measuring the time that the animals spent rubbing the injected area predominantly with the ipsilateral fore-paw and rarely with hind-paw. This rubbing behavior with fore-paw is evoked by pain, which is distinct from itch behavior. Behavioral analysis was conducted by observers blinded to treatment.
To investigate the effects of the specific compounds GSK205, 16-8, and 16-8/18hy on formalin-induced nociceptive behavior, mice received a single subcutaneous injection of the compounds into the whiskerpad (10 μL, dissolved in 4% DMSO) 15 min before formalin injection. Control animals received the same volume of NS, 4% DMSO.
Note the biphasic response and “clean” controls. […] This concentration had no effect on residual nocifensive behavior in Trpv4−/− mice. […] Also note that none of the compounds influenced the first phase, which was caused by the direct irritation that formalin causes on peripheral whisker-pad nerve endings.

human TRPV3 = molecular target: T3, human TRPV3 (Homo sapiens, UniProt Q8NET8); assay: Ca2+ signal in N2a cells transfected with human TRPV3 (camphor stimulation); assay type: cell-based
T3 construct: expressed in transfected cells; host or cells: N2a cells
T3 sequence (Q8NET8 1-790): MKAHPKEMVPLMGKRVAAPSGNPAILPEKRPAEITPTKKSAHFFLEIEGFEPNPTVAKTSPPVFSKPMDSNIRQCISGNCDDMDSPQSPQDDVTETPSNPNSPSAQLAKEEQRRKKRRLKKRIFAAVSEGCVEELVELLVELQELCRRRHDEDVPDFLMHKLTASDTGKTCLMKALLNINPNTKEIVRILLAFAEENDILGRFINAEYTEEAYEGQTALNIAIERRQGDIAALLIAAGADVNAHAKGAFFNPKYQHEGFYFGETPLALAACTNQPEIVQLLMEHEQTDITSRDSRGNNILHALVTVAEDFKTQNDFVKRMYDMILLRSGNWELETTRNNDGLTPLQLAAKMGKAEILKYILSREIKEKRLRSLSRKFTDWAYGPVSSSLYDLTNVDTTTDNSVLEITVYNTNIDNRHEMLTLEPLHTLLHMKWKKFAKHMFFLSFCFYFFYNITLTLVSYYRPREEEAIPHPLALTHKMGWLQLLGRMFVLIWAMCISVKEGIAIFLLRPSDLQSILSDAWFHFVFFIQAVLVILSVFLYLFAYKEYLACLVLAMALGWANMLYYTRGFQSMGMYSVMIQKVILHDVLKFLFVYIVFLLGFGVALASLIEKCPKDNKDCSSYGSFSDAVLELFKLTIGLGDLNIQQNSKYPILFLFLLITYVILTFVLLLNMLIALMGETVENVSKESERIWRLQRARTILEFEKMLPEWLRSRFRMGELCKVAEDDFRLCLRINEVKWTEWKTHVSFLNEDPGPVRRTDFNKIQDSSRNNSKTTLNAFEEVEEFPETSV
Procedure: as §1, §2

T2 sequence (O75762 whole entry): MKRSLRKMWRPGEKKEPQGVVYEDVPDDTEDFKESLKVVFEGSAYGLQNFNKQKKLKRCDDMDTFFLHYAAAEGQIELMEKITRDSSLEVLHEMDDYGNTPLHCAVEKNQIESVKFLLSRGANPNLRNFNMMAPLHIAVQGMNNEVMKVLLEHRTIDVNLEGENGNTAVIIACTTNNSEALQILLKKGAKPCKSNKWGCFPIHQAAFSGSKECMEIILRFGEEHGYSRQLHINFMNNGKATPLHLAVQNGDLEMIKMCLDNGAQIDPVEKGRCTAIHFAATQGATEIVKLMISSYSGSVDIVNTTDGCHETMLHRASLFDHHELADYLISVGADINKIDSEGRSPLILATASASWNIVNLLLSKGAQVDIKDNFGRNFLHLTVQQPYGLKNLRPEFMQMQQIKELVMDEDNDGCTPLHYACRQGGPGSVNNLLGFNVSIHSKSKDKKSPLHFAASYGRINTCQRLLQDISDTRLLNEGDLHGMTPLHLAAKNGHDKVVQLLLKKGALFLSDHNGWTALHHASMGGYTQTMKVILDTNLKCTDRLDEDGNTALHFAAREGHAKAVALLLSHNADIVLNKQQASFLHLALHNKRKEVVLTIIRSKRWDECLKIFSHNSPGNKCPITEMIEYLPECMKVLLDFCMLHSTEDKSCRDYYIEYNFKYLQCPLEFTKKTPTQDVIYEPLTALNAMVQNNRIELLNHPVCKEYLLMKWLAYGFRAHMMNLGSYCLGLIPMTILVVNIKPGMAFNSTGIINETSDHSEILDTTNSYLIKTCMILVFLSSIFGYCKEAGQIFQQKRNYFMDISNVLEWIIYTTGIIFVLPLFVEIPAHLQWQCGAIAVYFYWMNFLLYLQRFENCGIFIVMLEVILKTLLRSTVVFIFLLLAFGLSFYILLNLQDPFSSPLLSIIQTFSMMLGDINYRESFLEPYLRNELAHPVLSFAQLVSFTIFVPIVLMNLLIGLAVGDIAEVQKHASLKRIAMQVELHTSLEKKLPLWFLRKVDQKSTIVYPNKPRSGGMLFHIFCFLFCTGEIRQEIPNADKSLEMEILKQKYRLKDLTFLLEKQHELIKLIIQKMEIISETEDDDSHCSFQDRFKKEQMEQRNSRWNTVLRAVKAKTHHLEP
TRPV4, sequence (Q9HBA0 whole entry): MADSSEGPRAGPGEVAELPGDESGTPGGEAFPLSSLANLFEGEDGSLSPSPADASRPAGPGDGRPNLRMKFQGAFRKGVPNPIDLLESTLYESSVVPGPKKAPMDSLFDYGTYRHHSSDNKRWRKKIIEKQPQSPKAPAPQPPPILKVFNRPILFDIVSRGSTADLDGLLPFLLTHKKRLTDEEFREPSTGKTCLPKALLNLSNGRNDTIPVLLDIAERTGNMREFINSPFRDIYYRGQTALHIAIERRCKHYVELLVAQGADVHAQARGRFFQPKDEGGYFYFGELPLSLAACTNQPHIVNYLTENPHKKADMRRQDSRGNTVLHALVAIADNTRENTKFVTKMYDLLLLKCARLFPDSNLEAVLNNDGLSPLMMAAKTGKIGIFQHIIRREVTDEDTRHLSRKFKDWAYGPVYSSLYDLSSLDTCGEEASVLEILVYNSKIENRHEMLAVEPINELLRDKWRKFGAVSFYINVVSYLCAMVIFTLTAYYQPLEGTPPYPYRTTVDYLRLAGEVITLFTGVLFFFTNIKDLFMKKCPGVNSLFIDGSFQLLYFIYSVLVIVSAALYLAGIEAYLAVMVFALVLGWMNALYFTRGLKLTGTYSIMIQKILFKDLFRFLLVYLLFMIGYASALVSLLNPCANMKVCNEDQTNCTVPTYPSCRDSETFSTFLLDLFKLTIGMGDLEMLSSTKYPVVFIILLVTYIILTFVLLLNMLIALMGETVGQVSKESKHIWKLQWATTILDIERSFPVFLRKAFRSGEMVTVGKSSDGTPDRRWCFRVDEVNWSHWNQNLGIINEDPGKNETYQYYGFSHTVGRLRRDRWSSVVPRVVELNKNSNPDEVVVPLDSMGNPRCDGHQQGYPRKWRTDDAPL
T1 sequence (Q8NER1 whole entry): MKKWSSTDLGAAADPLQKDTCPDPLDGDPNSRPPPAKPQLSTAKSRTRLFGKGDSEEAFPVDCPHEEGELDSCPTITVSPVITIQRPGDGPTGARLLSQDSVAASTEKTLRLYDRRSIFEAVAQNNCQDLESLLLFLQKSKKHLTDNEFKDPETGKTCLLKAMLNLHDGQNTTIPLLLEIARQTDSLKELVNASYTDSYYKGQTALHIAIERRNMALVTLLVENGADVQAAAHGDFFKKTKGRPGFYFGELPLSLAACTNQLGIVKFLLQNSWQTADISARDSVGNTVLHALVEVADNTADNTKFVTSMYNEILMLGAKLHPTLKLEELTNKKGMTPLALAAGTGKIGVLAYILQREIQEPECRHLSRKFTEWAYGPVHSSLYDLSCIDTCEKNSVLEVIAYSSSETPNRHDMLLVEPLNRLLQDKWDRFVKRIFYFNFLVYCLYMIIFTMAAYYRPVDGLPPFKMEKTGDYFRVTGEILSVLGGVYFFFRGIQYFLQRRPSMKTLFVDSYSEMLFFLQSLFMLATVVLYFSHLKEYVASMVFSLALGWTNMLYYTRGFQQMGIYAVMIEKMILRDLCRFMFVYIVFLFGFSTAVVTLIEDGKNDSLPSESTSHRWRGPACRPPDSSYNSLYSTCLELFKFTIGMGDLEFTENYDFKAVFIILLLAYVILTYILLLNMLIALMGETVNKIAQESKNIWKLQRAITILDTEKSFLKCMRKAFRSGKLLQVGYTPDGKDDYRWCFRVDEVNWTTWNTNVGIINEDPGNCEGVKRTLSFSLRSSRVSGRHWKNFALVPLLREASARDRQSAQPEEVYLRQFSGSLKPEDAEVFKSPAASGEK

Compound | Ca2+ transience, TRPV1 (human TRPV1) | inhibitory activity against human TRPA1 (human TRPA1) | inhibition of TRPV4-mediated calcium influx (peak calcium concentration in the cells) (TRPV4) | formalin-evoked nocifensive behavior at the 45-min time-point (BL6 mice) | formalin-evoked nocifensive behavior, time course (BL6 mice) | formalin-evoked nocifensive behavior, quantitation (in particular second phase) (BL6 mice) | Ca2+ transience, TRPV3 (human TRPV3) | inhibition of TRPA1 activity (human TRPA1; doses below or equaling 25 μM)
CCN(CCc1ccc(Nc2nc(-c3ccccc3)cs2)cc1)Cc1ccccc1 [16-8/18hy] | not affected | showed inhibitory activity | did not show enhanced inhibition over 16-8 | reversal to control levels | significantly attenuated nocifensive behavior | significant attenuation of nocifensive behavior | not affected | –
CN(CCc1ccc(Nc2nc(-c3cccnc3)cs2)cc1)Cc1ccccc1 [GSK205] | – | – | very low potency | – | not different from control | lack of effect | – | did not inhibit TRPA1 activity
CN(CCc1ccc(Nc2nc(-c3ccccc3)cs2)cc1)Cc1ccccc1 [Compound 16-8] | not affected | showed inhibitory activity | most potent | reduction to control levels | significantly attenuated nocifensive behavior | significant attenuation of nocifensive behavior | not affected | –
